Measurements from patent publication US12071488B2, “Method of sensitizing cancer cells to anti-cancer treatment” (TWO TO BIOTECH LTD., priority 2017, dated 2024).

Legend:
[1] = system: Notch3 receptor; test: Western blot analysis of Notch3 receptor in membrane fraction of MDA-MB-231 cells; format: cell-based, human
Description: MDA-MB-231 cells (0.8×10^6) were seeded on five 75 cm^2 flasks in 25 ml DMEM (41965039 Gibco) medium comprising 10% fetal bovine serum (FBS), Gentamycin Sulfate (03-035-1C Biological industries) and Amphotericin B (03-029-1C Biological industries). Cells were incubated overnight in an incubator. […]
Media was then removed and the cells were scrapped off the flask by a cell scraper into 1.8 ml fresh DMEM media. Cells were collected into 2 ml Eppendorf tubes in two fractions: cytosolic proteins and membrane proteins that were extracted by Membrane Protein Extraction Kit (Thermo scientific #89842). Protease inhibitors (Sigma p2714) and phosphatase inhibitors (Sigma P5726) were added to the Permeabilization and Solubilization Buffers, as recommended by the manufacturer.
Samples were prepared for western blotting as follows: sample buffer (invitrogen cat #NP0007, 4-fold concentrated) and sample reducing agent (Invitrogen cat #NP0009, 10-fold concentrated) were added to each sample and the samples were boiled for 5 minutes. […]
The membrane was washed 3 times using TBST, and the secondary antibody αRabbit-HRP was then added (dilution 1:5000 in 5% milk in TBST) for an incubation of 1 hour at room temperature, with agitation. […] Notch 3 antibody was applied to the membrane and the quantitation of the protein was preformed and calibrated with beta-actin protein.

[2] = system: HER2; test: HER2 immunohistochemistry of MDA-MB-231 tumor sections from nude mice; format: in vivo, Balb/C Nude mice; conditions: mice with MDA-MB-231 tumors; APC1 350 μg per mouse, three times per week, two weeks; vs saline
Description: MDA-MB-231 cells were grown in DMEM medium with Hepes (Gibco 41965-039) containing 10% heat inactivated Fetal Bovine Serum (Biological industries, #04-121-1A) and 1% Pen-Strep antibiotic (Biological industries, 03-031-1B) inside a 175 cm^2 flask (Nunc 178883). The cells were incubated at 37° C. in the presence of 5% CO2 and 95% humidity. The other cancer cells injected into mice (namely OV90 and Panc1) were prepared in a similar manner.
When a sufficient number of cells were present, the cells were centrifuged at 300 g for 5 minutes. The supernatant was discarded and 5-10 ml PBS (Biological Industries, #02-023-5A) was added to the cell pellet in order to wash the remaining medium. The cells were centrifuged again (same speed and time), the supernatant was discarded and 5-10 ml Saline was added to the cells. At this stage the cells were counted under a light microscope using a Hemocytometer, and saline was accordingly added to reach a concentration of 8×10^6 cells/200 μl.
Female Balb/C Nude mice (as detailed above) were retained in the Inventor's animal facility for at least 24 hours. Next all mice were intraperitoneally injected with 8×10^6 cells (in 200 μl saline) using a 27 G needle.
APC1 peptide was diluted in saline to the appropriate concentration in order to inject a dose of 350 μg/mouse. After the tumors reached the size of 0.5 cm×0.5 cm (usually 5 days) treatment of mice began. […]

[3] = system: MDA-MB-231 cells; test: Resazurin cell viability assay with APC1 and cisplatin or doxorubicin, MDA-MB-231 cells; format: cell-based, human; conditions: MDA-MB-231 pre-incubated with APC1 250 μg/ml; doxorubicin 0.3, 0.5, 1 μM, 48 hours; concentration dependent
Description: Cells treated with APC1 were seeded with APC1 at 250 μg/ml. The cells were incubated overnight.
Then the media was aspirated from the plates, and 100 μl of the treatment solutions were added to the appropriate wells, each treatment in triplicates. The cells were incubated for 48 hours.

EKGAAFSPIYPRRK (C terminal peptide of KTPAF50) [APC1, polypeptide consisting of the 14 C-terminal amino acid residues of the peptide KTPAF50]
incubation period with highest Notch3 expression ([1]; APC1 250 μg/ml, 1, 3, 5 or 24 hours): highest for incubations periods of 3 and 5 hours | expression of active Notch3 receptor on the cell membrane ([1]; APC1 250 μg/ml, membrane protein fraction): increase | HER2 expression on the cell surface of tumor cells (immunohistochemistry) [2]: clear HER2 expression | sensitivity to doxorubicin (relative cell viability) [3]: increased the sensitivity
